Data on 19 compounds can be found in patent US11660293B2, “Substituted 2-azabicyclo[3.1.1]heptane and 2-azabicyclo[3.2.1]octane derivatives as orexin receptor antagonists” (Chronos Therapeutics Limited, priority 2017, dated 2023).

Series [1] concerns the target T1, human Orexin type 1 receptors (Homo sapiens (Human), UniProt O43613). The series is described as follows: Scintillation Proximity Assay (SPA) binding assay, [3H]SB-674042 displacement, CHO-hOX1 membranes. The settings on record: for Ki: read-out: OX1 pKi (SPA binding) (converted).
Series [2] can be described thus: Measurement of brain fraction unbound (equilibrium dialysis). In kind it is in vitro ADME. The settings on record: pH 7.4, rat brain homogenate, 37° C., read-out: FU brain (%, rat). The method, then:
Measurement of Brain Fraction Unbound (Equilibrium Dialysis)
Brain fractions unbound were determined using equilibrium dialysis in a 96-well format as described in Kalvass and Maurer, 2002. Brain homogenates were prepared using 2 ml/g CSF surrogate (7.30 g/l NaCl, 186.4 mg/l KCl, 239.9 mg/l MgCl2, 185.2 mg/l CaCl2), and 536.0 mg/l Na2HPO4.7H2O, pH 7.4). Dialysis membranes (12-14-kDA cutoff) obtained from Spectrum Laboratories Inc. (Rancho Dominguez, Calif.) were conditioned in water (HPLC grade) for 60 min, followed by 20 min in 20% ethanol, and 15 min in CSF surrogate.
Assay compound concentrations were 5 μM. Diluted brain homogenate was spiked with the compound of interest, and 150-μl aliquots were loaded into the 96-well equilibrium dialysis apparatus and dialyzed against an equal volume of CSF surrogate. Equilibrium was achieved by incubating the 96-well equilibrium dialysis apparatus in a temperature-controlled incubator at 37° C. for 5 h, using an orbital shaker at 125 rpm. At the end of the incubation period, 50-μl aliquots of brain homogenate and buffer were transferred to a 96-well plate, and the composition in each tube was balanced with control fluid to equalize the brain and buffer volumes. Sample extraction was performed by addition of 400 μl of acetonitrile containing internal standard (rolipram). The samples were then vortex-mixed and centrifuged, and 100 μl of supernatants was transferred into a 96-well plate, diluted with 200 μl of 16% acetonitrile/water, and analyzed by liquid chromatography-tandem mass spectrometry (LC-MS/MS).
The brain unbound fraction (FU brain) was calculated from the ratio of analyte/internal standard peak area ratios determined in buffer versus brain homogenate samples using equation (1), which accounts for the effect of tissue dilution on unbound fraction (Kalvass and Maurer, 2002):
[formula] where D is the dilution factor in brain homogenate and fu-diluted is the measured free fraction of diluted brain tissue. Results

The target of series [3] is T2, human Orexin type 2 receptors (Homo sapiens (Human), UniProt O43614). Nature of the series: Scintillation Proximity Assay (SPA) binding assay, [3H]EMPA displacement, HEK-hOX2 membranes. The settings on record: for Ki: read-out: OX2 pKi (SPA binding) (converted).
T2 sequence (O43614 whole entry): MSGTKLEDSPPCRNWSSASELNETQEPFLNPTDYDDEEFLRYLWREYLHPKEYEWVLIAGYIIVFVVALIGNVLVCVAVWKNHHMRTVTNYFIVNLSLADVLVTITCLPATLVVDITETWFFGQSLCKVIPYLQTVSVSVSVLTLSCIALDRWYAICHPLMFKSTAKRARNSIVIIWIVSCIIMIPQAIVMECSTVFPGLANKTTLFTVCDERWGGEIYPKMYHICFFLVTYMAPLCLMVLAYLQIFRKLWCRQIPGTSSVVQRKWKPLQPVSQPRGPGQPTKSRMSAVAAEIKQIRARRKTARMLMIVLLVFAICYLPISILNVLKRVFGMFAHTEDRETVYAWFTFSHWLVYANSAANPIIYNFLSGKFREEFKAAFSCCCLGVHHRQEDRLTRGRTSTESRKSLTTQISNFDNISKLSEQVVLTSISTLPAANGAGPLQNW
Series [4] concerns the target T2, human Orexin type 2 receptors. Nature of the series: Intracellular calcium measurement (FLIPR), antagonism of Orexin-A at EC80 in CHO-hOX2 cells.
Series [5] deals with T1, human Orexin type 1 receptors. Nature of the series: Intracellular calcium measurement (FLIPR), antagonism of Orexin-A at EC80 in CHO-hOX1 cells.

SMILES strings stand for the structures.

T1 sequence (O43613 whole entry): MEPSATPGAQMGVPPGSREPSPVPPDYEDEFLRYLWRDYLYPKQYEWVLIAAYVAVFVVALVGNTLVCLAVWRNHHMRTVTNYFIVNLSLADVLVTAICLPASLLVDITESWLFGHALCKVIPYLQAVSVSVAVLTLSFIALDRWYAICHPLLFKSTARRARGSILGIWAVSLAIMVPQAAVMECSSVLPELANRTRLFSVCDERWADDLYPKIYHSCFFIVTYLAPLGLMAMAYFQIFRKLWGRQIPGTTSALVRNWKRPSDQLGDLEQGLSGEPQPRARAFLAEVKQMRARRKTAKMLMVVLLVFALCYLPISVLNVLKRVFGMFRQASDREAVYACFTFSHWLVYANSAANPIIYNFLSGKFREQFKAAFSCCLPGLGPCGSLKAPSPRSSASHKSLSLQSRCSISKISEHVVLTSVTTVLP

As to `Cc1ccc(-n2nccn2)c(C(=O)N2C3CC(C3)[C@@H](C)C2CNc2cnc(C(F)(F)F)cn2)n1` (mixture of isomers) [Example 165, cis-N-({4-methyl-2-[6-methyl-3-(2H-1,2,3-triazol-2-yl)pyridine-2-carbonyl]-2-azabicyclo[3.1.1]heptan-3-yl}methyl)-5-(trifluoromethyl)pyrazin-2-amine], in series [1] (Table 2, [3H]SB-674042 2 nM), the “OX1 pKi (SPA binding)” value is reported as 7.63. Moreover, the fraction unbound at 5 h, 5 μM in series [2] is 0.0477. Also, in series [3] (Table 2, [3H]EMPA 2 nM), the “OX2 pKi (SPA binding)” value is listed as 4.83.

Regarding `C[C@@H]1C2CC(C2)N(C(=O)c2nn(C)cc2-c2ncccn2)C1CNc1ccc(C(F)(F)F)cn1` (mixture of isomers) [Example 213, cis-N-({4-methyl-2-[1-methyl-4-(pyrimidin-2-yl)-1H-pyrazole-3-carbonyl]-2-azabicyclo[3.1.1]heptan-3-yl}methyl)-5-(trifluoromethyl)pyridin-2-amine], in series [1] (Table 2, [3H]SB-674042 2 nM), the “OX1 pKi (SPA binding)” value is reported as 7.91. The fraction unbound at 5 h, 5 μM in series [2] was found to be 0.0876. Further, the “OX2 pKi (SPA binding)” value in series [3] (Table 2, [3H]EMPA 2 nM) was 4.39.

For the compound `Cc1nc(C(=O)N2C(COc3ccc(F)cc3)CC3CC2C3)c(-c2ccccc2)s1` (racemic) [Example 1], the “OX1 pKi (SPA binding)” value in series [1] (Table 1, [3H]SB-674042 2 nM) amounted to 8.14. The Ki in series [4] was 295 nM; in series [5], 6.31 nM. In addition, the “OX2 pKi (SPA binding)” value in series [3] (Table 1, [3H]EMPA 2 nM) is given as 6.97.

Turning to `Cc1ccc(-c2ncccn2)c(C(=O)N2C3CC(C3)[C@@H](C)[C@H]2COc2ccc(F)cc2)c1` (single isomer, unassigned) [Example 71, (3S,4R or 3R,4S) 3-(4-fluorophenoxymethyl)-4-methyl-2-[5-methyl-2-(pyrimidin-2-yl)benzoyl]-2-azabicyclo[3.1.1]heptane], the Ki in series [4] is 89.1 nM; in series [5] it was 3.39 nM.

As for `Cc1ccc(-c2ncccn2)c(C(=O)N2C3CC(C3)[C@@H](C)C2COc2ccc(F)cn2)c1` (single isomer, unassigned) [Example 75, (3S,4R or 3R,4S) 3-{[(5-fluoropyridin-2-yl)oxy]methyl}-4-methyl-2-[5-methyl-2-(pyrimidin-2-yl)benzoyl]-2-azabicyclo[3.1.1]heptane], the Ki in series [4] was 105 nM; in series [5], 10.5 nM.

On to `Cc1ccc(-c2ncccn2)c(C(=O)N2C3CC(C3)[C@H](C)[C@@H]2COc2ccc(F)cn2)n1` (single isomer, unassigned) [Example 81, (3S,4R or 3R,4S) 3-{[(5-fluoropyridin-2-yl)oxy]methyl}-4-methyl-2-[6-methyl-3-(pyrimidin-2-yl)pyridine-2-carbonyl]-2-azabicyclo[3.1.1]heptane], for which the Ki is 58.9 nM in series [4] and 9.77 nM in series [5].

Regarding `Cc1ccc(-c2ncccn2)c(C(=O)N2C3CC(C3)[C@@H](C)[C@@H]2COc2ccc(F)cn2)n1` (single isomer, unassigned) [Example 82, (3S,4S or 3R,4R) 3-{[(5-fluoropyridin-2-yl)oxy]methyl}-4-methyl-2-[6-methyl-3-(pyrimidin-2-yl)pyridin-2-carbonyl]-2-azabicyclo[3.1.1]heptane], the values for the Ki in series [4] and in series [5] were 2240 nM and 10 nM, respectively.

For `Cc1ccc(-c2ncccn2)c(C(=O)N2C3CC(C3)[C@@H](C)[C@@H]2COc2ccc(F)cc2)n1` (single isomer, unassigned) [Example 93, (3S,4S or 3R,4R)-3-(4-fluorophenoxymethyl)-4-methyl-2-[6-methyl-3-(pyrimidin-2-yl)pyridine-2-carbonyl]-2-azabicyclo[3.1.]heptane], the Ki was 1.95 nM in series [1] (Table 1, [3H]SB-674042 2 nM) and 407 nM in series [3] (Table 1, [3H]EMPA 2 nM). In addition, the fraction unbound at 5 h, 5 μM in series [2] was found to be 0.0258.

Regarding `Cc1ccc(-n2nccn2)c(C(=O)N2C3CC(C3)[C@H](C)C2COc2ccc(F)cc2)n1` (single isomer, unassigned) [Example 105, (3S,4S or 3R,4R)-3-[(4-fluorophenoxy)methyl]-4-methyl-2-[6-methyl-3-(2H-1,2,3-triazol-2-yl)pyridine-2-carbonyl]-2-azabicyclo[3.1.1]heptane], the Ki was 6.31 nM in series [1] (Table 1, [3H]SB-674042 2 nM) and 1320 nM in series [3] (Table 1, [3H]EMPA 2 nM). Also, the fraction unbound at 5 h, 5 μM in series [2] turned out to be 0.0116.

On to `Cc1nc(C(=O)N2C3CC(C3)[C@H](C)C2COc2ccc(F)cc2)c(-c2ncccn2)s1` (single isomer, unassigned) [Example 115, (3R,4R) or (3S,4S)-3-[(4-fluorophenoxy)methyl]-4-methyl-2-[2-methyl-5-(pyrimidin-2-yl)-1,3-thiazole-4-carbonyl]-2-azabicyclo[3.1.1]heptane], for which the “OX1 pKi (SPA binding)” value in series [1] (Table 2, [3H]SB-674042 2 nM) is 8.5. Moreover, the fraction unbound at 5 h, 5 μM in series [2] worked out at 0.0151. For the same compound, in series [3] (Table 2, [3H]EMPA 2 nM), the “OX2 pKi (SPA binding)” value is recorded as 5.93.

In the case of `Cc1ccc(-n2nccn2)c(C(=O)N2C3CC(C3)[C@@H](C)C2CNc2cnc(C(F)(F)F)cn2)n1` (single isomer, unassigned) [Example 167, N-{[(3R,4S) or (3S,4R)-4-methyl-2-[6-methyl-3-(2H-1,2,3-triazol-2-yl)pyridine-2-carbonyl]-2-azabicyclo[3.1.1]heptan-3-yl]methyl}-5-(trifluoromethyl)pyrazin-2-amine], the “OX1 pKi (SPA binding)” value in series [1] (Table 2, [3H]SB-674042 2 nM) is reported as 8.12. Also, in series [2], the fraction unbound at 5 h, 5 μM stood at 0.0593. For the same compound, the “OX2 pKi (SPA binding)” value in series [3] (Table 2, [3H]EMPA 2 nM) turned out to be 5.13.

Consider `Cc1ccc(-n2nccn2)c(C(=O)N2C3CC(C3)[C@@H](C)C2CNc2ccc(C(F)(F)F)cn2)n1` (single isomer, unassigned) [Example 183, N-{[(3R,4S) or (3S,4R)-4-methyl-2-[6-methyl-3-(2H-1,2,3-triazol-2-yl)pyridine-2-carbonyl]-2-azabicyclo[3.1.1]heptan-3-yl]methyl}-5-(trifluoromethyl)pyridin2-amine], for which the “OX1 pKi (SPA binding)” value in series [1] (Table 2, [3H]SB-674042 2 nM) amounted to 8.31. Further, the fraction unbound at 5 h, 5 μM in series [2] was determined as 0.0256. The “OX2 pKi (SPA binding)” value in series [3] (Table 2, [3H]EMPA 2 nM) was 5.26.

Take `Cc1ccc(-n2nccn2)c(C(=O)N2C3CC(C3)[C@@H](C)C2CNc2nc3cccnc3s2)n1` (single isomer, unassigned) [Example 186, N-({(3R,4S) or (3S,4R)-4-methyl-2-[6-methyl-3-(2H-1,2,3-triazol-2-yl)pyridine-2-carbonyl]-2-azabicyclo[3.1.1]heptan-3-yl}methyl)-[1,3]thiazolo[5,4-b]pyridin-2-amine]: the “OX1 pKi (SPA binding)” value in series [1] (Table 2, [3H]SB-674042 2 nM) was determined as 8.42. In series [2], the fraction unbound at 5 h, 5 μM was determined as 0.147. Moreover, the “OX2 pKi (SPA binding)” value in series [3] (Table 2, [3H]EMPA 2 nM) was 5.36.

As for `C[C@@H]1C2CC(C2)N(C(=O)c2cc(Cl)ccc2-n2nccn2)C1CNc1cnc(C(F)(F)F)cn1` (single isomer, unassigned) [Example 205, N-({(3R,4S) or (3S,4R)2-[5-chloro-2-(2H-1,2,3-triazol-2-yl)benozyl]-4-methyl-2-azabicyclo[3.1.1]heptan-3-yl}methyl)-5-(trifluoromethyl)pyrazin-2-amine], the “OX1 pKi (SPA binding)” value in series [1] (Table 2, [3H]SB-674042 2 nM) stood at 8.59. In series [2], the fraction unbound at 5 h, 5 μM was found to be 0.0089. For the same compound, the “OX2 pKi (SPA binding)” value in series [3] (Table 2, [3H]EMPA 2 nM) is 5.34.

In the case of `C[C@@H]1C2CC(C2)N(C(=O)c2nn(C)cc2-c2ncccn2)C1CNc1ccc(C(F)(F)F)cn1` (single isomer, unassigned) [Example 215, N-{[(3R,4S) or (3S,4R)-4-methyl-2-{1-methyl-4-(pyrimidin-2-yl)-1H-pyrazole-3-carbonyl]-2-azabicyclo[3.1.1]heptan-3-yl]methyl}-5-(trifluoromethyl)pyridin-2-amine], the “OX1 pKi (SPA binding)” value in series [1] (Table 2, [3H]SB-674042 2 nM) is given as 8.15. Also, the fraction unbound at 5 h, 5 μM in series [2] was 0.0761. Besides, the “OX2 pKi (SPA binding)” value in series [3] (Table 2, [3H]EMPA 2 nM) was 4.79.

Turning to `Cc1ccc(-c2ncccn2)c(C(=O)N2C(COc3ccc(Cl)cc3)CC3CC2C3)c1` (centres unmarked) [Example 19], the Ki is 977 nM in series [4] and 91.2 nM in series [5].

In the case of `Cc1nc(C(=O)N2C(COc3ccc(F)cn3)CC3CC2C3)c(-c2ccccc2)s1` (centres unmarked) [Example 24], the Ki in series [4] is 759 nM; in series [5], 46.8 nM.

As to `Cc1ccc(-c2nccs2)c(C(=O)N2C(COc3ccc(F)cn3)CC3CC2C3)n1` (centres unmarked) [Example 31], the Ki in series [4] was 776 nM; in series [5], 97.7 nM.

On to `Cc1ccc(-c2ncccn2)c(C(=O)N2C3CC(C3)[C@@H](C)C2COc2ccc(F)cn2)c1` (some centres unmarked) [Example 74], for which the Ki in series [4] is 589 nM; in series [5], 28.8 nM.
